# Experimental data published in patent US6538037B2, “Methods for preparation and use of 1α,24(S)-dihydroxyvitamin D2” (Bone Care International, Inc., priority 1991, dated 2003).
# Tests used:
# Hep 3B cells = assay: Metabolism of 1α-OH-D2 in Hep 3B cells; format: in vitro ADME, human; conditions: photodiode array spectrophotometry
# Procedure: Substantially pure 1α-(OH)D2 was obtained from Bone Care International, Inc. of Madison, Wis. The 1α-(OH)D2 was cultured for 48 hours with cells derived from a human hepatoma, Hep 3B, in medium devoid of fetal calf serum using known methods in the art.
# Lipid extracts of the combined medium and cells were generated by known methods in the art and were subjected to high pressure liquid chromatography (HPLC) on Zorbax-S1L developed with hexane/isopropano/methanol (91:7:2). The putative 1α,24(?)-(OH)2D2 metabolite eluted between the parent 1α-(OH)D2 and standard 1α,25-(OH)2D2 (also obtained from Bone Care International, Inc. of Madison, Wis.). (As used herein, the term “1α,24(?)-(OH)2D2” is meant to indicate that the epimeric form has not been identified.) The 1α,24(?)-(OH)2D2 was further purified by this HPLC system before the metabolite's identification was undertaken using mass spectrometry analysis.
# Hep 3B cells were incubated with 1α-OH-D2, as described above, at final concentrations of 1, 10, or 100 nM (Experiment 1), and 1 or 10 μM (Experiment 2) and 1α,24(S)-(OH)2D2 was extracted and purified. The 1α,24(S)-(OH)2D2 and 1α,25-(OH)2D2 metabolites were quantitated by recovered radiolabel (Experiment 1) or by photodiode array spectrophotometry (Experiment 2).
# [1] = tested on: vitamin D receptor positive tumor; assay: General treatment of cancers, open-label study; format: in vivo, human; conditions: after 18 months
# Description: Patients with a known vitamin D receptor positive tumor (e.g., adenocarcinoma of the prostate, breast, lung, colon or pancreas, or transitional cell carcinoma of the bladder, or melanoma) participate in an open-label study of 1α,24(S)-(OH)2D2. Patients are placed on a reduced calcium diet prior to treatment, to help minimize intestinal absorption and allow ever higher doses of 1α,24(S)-dihydroxyvitamin D2. This reduced calcium diet may be continued for the duration of treatment, and for one week after the last dose of the 1α,24(S)-dihydroxyvitamin D2. The diet ideally restricts daily calcium intake to 400-500 mg. Patients also discontinue use of any vitamin supplements or vitamin D replacement therapies. Each patient is also asked to drink 4-6 cups of fluid more than usual intake to assure adequate oral hydration.
# Each subject is monitored at regular intervals for: (1) hypercalcemia, hyperphosphatemia, hypercalciuria, hyperphosphaturia and other toxicity; (2) evidence of changes in the progression of metastatic disease; and (3) compliance with the prescribed test drug dosage.
# The dosing regimen is typically on a daily dose basis of 10 μg or 20 μg per day to about 100 μg/day for 24 months. Alternatively, a non-daily dosing regimen can be used, e.g., 40 μg given every other day, 100 μg given once a week. […]
# [2] = Hypocalcemia and metabolic bone disease in chronic hemodialysis patients; format: in vivo, human; conditions: greater than 3.0 μg/day
# Procedure: A twelve-month, double-blind, placebo-controlled clinical trial is conducted with thirty men and women with renal disease who are undergoing chronic hemodialysis. All patients enter an 8-week control period during which time they receive a maintenance dose of Vitamin D3 (400 IU/day). After this control period, the patients are randomized into two treatment groups: one group receives a constant dosage of 1α,24(S)-dihydroxyvitamin D2 (u.i.d.; a dosage greater than 3.0 μg/day) and the other group receives a matching placebo. Both treatment groups receive a maintenance dosage of Vitamin D3, maintain a normal intake of dietary calcium, and refrain from using calcium supplements. Efficacy is evaluated by pre- and post-treatment comparisons of the two patient groups with regard to (a) direct measurements of intestinal calcium absorption, (b) total body calcium retention, (c) radial and spinal bone mineral density, or (d) determinations of serum calcium. Safety is evaluated by regular monitoring of serum calcium.
# [3] = Dose ranging study in postmenopausal osteoporotic women; format: in vivo, human; conditions: oral 0.5 to 8.0 μg/day, five weeks
# Procedure: Twenty postmenopausal osteoporotic women are enrolled in an open label study.
# In admission to the study, all patients receive instruction on selecting a daily diet containing 400 to 600 mg of calcium. Compliance to this diet is verified at weekly intervals by 24-hour food records and by interviews with each patient.
# All patients complete a one-week baseline period, a five-week treatment period, and a one-week post-treatment observation period. During the treatment period, patients orally self-administer 1α,24(S)-dihydroxyvitamin D2 at an initial dose of 0.5 μg/day for the first week, and at successively higher doses of 1.0, 2.0, 4.0, and 8.0 μg/day in each of the following four weeks. All doses are administered before breakfast.
# Blood and urine chemistries are monitored on a weekly basis throughout the study. Key blood chemistries include fasting serum levels of calcium, phosphorus, osteocalcin, creatinine, and blood urea nitrogen. Key urine chemistries include 24-hour excretion of calcium, phosphorus, and creatinine.
# vitamin D receptor (VDR) = assay: Vitamin D-inducible growth hormone production in transfected COS-1 cells; format: cell-based, Green monkey; conditions: for Total GH Production: averages of duplicate determinations
# Procedure: The biological activity in vitro of chemically synthesized 1α,24(S)-(OH)2D2 and 1α,24(R)-(OH)2D2 was measured using a vitamin D-dependent transcriptional activation model system in which a vitamin D receptor (VDR)-expressing plasmid pSG5-hVDR1/3 and a plasmid p(CT4)^4TKGH containing a Growth Hormone (GH)-gene, under the control of a vitamin D-responsive element (VDRE) were co-transfected into Green monkey kidney, COS-1 cells. DNA's for these two vectors were supplied by Dr. Mark Haussler, Department of Biochemistry, University of Arizona, Tucson, Ariz.
# Transfected cells were incubated with vitamin D metabolites and growth hormone production was measured.
smiles,measurement,setting,value
"C=C1/C(=C\C=C2/CCC[C@]3(C)[C@@H]([C@H](C)/C=C/[C@@](C)(O)C(C)C)CC[C@@H]23)C[C@@H](O)C[C@@H]1O [1α,24(S)-(OH)2D2, 1α,24(S)-dihydroxyvitamin D2]",Rate of Production,"Hep 3B cells; Experiment 2, substrate 1α-OH-D2 1 μM",4.9 pmol per 10^6 cells/day
same,Rate of Production,"Hep 3B cells; Experiment 2, substrate 1α-OH-D2 10 μM",59 pmol per 10^6 cells/day
same,"progress of metastatic disease (CAT scans, X-rays, bone scans)",[1]; higher dosage,stable disease and partial or complete remission in many patients
same,"progress of metastatic disease (CAT scans, X-rays, bone scans)",[1]; lower dosage,partial remission in many patients
same,intestinal calcium absorption,[2]; double-isotope technique,significantly increases intestinal calcium absorption
same,incidence of hypercalcemia,[2]; twelve months,insignificant incidence of hypercalcemia
same,serum calcium levels,[2]; twelve months,normalized serum calcium levels
same,total body calcium and radial and spinal bone densities relative to baseline,[2]; twelve months,"stable values for total body calcium, and stable radial and spinal bone densities"
same,24-hour urinary calcium levels,[3],modest increases in 24-hour urinary calcium levels
same,"kidney function (creatinine clearance, blood urea nitrogen)",[3],does not adversely affect kidney function
same,routinely monitored serum parameters,[3],no effect on any routinely monitored serum parameters
same,serum osteocalcin levels,[3],increases in serum osteocalcin levels
same,urinary excretion of hydroxyproline,[3],nor does it increase urinary excretion of hydroxyproline
same,Net vitamin D-inducible GH-production,vitamin D receptor (VDR); inducer 5 × 10^−9 M,1306 ng/mL
same,Total GH Production,vitamin D receptor (VDR); inducer 5 × 10^−9 M,1350 ng/mL
same,Net vitamin D-inducible GH-production,vitamin D receptor (VDR); inducer 5 × 10^−10 M,381 ng/mL
same,Total GH Production,vitamin D receptor (VDR); inducer 5 × 10^−10 M,425 ng/mL
